Laboratory results reported in ChEMBL document CHEMBL1221242, “Design and synthesis of HCV agents with sequential triple inhibitory potentials” (2010).

Legend:
Hepacivirus hominis = assay: Ratio of inhibition of HCV 1b NS5B Cdelta21 polymerase to inhibition of HCV relative to HCV-796
Hepatitis C virus [1] = assay: Inhibition of HCV 1b NS5B Cdelta21 polymerase expressed in Escherichia coli assessed as inhibition of [alpha-33P]GTP incorporation into RNA relative to HCV-796; parameters: species or system Hepatitis C virus subtype 1b
Hepatitis C virus [2] = assay: Antiviral activity against HCV infected in human BB7 cells assessed as inhibition of viral replication after 3 days relative to HCV-796; type: functional, Hepacivirus hominis

Structure (SMILES) | Ratio (Hepacivirus hominis) | Ratio (Hepatitis C virus [1]) | Ratio (Hepatitis C virus [2])
CNC(=O)c1c(-c2ccc(F)cc2)oc2cc(N(CCOP(=O)(O)O)S(C)(=O)=O)c(C3CC3)cc12 | 22.2 | 0.4 | 8.9
CNC(=O)c1c(-c2ccc(F)cc2)oc2cc(N(CCO)S(C)(=O)=O)c(C3CC3)cc12 [NESBUVIR] | 1 | 1 | 1
CNC(=O)c1c(-c2ccc(F)cc2)oc2cc(N(CCOP(=O)(O)OC[C@H]3O[C@@H](n4cnc(C(N)=O)n4)[C@H](O)[C@@H]3O)S(C)(=O)=O)c(C3CC3)cc12 | 1.18 | 6.2 | 7.3
CNC(=O)c1c(-c2ccc(F)cc2)oc2cc(N(CCOP(=O)(O)OC[C@H]3O[C@@H](n4cnc(C(N)=O)n4)[C@@H]4OC(C)(C)O[C@@H]43)S(C)(=O)=O)c(C3CC3)cc12 | 1.57 | 11.8 | 18.6
CNC(=O)c1c(-c2ccc(F)cc2)oc2cc(N(CCOC(=O)CCC(=O)OC[C@H]3O[C@@H](n4cnc(C(N)=O)n4)[C@H](O)[C@@H]3O)S(C)(=O)=O)c(C3CC3)cc12 | 0.28 | 22 | 6.2
CNC(=O)c1c(-c2ccc(F)cc2)oc2cc(N(CCOC(=O)CCC(=O)OC[C@H]3O[C@@H](n4cnc(C(N)=O)n4)[C@@H]4OC(C)(C)O[C@@H]43)S(C)(=O)=O)c(C3CC3)cc12 | 0.31 | 42 | 13
